From US20100068197A1, “PHARMACEUTICAL COMPOUNDS AS INHIBITORS OF CELL PROLIFERATION AND THE USE THEREOF” (Myriad Pharmaceuticals, Inc., priority 2008, published 2010)

What was measured:
[1] = system: P388/ADR cell lines (overexpress the multidrug resistance pump MDR-1); test: Multidrug resistant cell assay, cell viability by ATP-lite; assay type: cell-based, murine
Text: Cytotoxicity of compounds in multidrug resistant cells can be determined by administering compounds to cell lines that overexpress the multidrug resistance pump MDR-1 and determining the viability of the cell lines. P388/ADR cell lines are known to overexpress the multidrug resistance pump MDR-1 (also known as P-glycoprotein-1; Pgp-1).
P388/ADR cell lines are obtained from American Type Culture Collection (Manassas, Va.) and maintained in RPMI-1640 media supplemented with 10% FCS, 10 units/mL penicillin and streptomycin, 2 mM Glutamax and 1 mM sodium pyruvate (Invitrogen Corporation, Carlsbad, Calif.). For compound testing, cells are plated in 96 well dishes at a concentration of 1.5×10^4 cells/well. Cells are allowed to adhere to the plate overnight and then incubated with compounds at final concentrations ranging from 0.13 nM to 10 μM for 72 hours. Cell viability is then assessed using the ATP-lite reagent (Perkin Elmer, Foster City, Calif.). Plates are read on a Wallac Topcount luminescence reader (Perkin Elmer, Foster City, Calif.) and the results graphed in Prism software (Graphpad Software, Inc., San Diego, Calif.). Non-linear regression with variable slope analysis is performed to obtain IC50 concentration values.

[2] = system: P388 murine leukemia cell line; test: P388 cytotoxicity, cellular viability by ATP-Lite; assay type: cell-based; details: compound concentration required to inhibit growth by 50%, intracellular ATP
Procedure: A P388 murine leukemia cell line was obtained from NCI, Frederick, Md. P388 cells were cultured in RPMI-1640 supplemented with 10% fetal bovine serum, 2 mM Glutamax, 1 mM sodium pyruvate, 0.1 mM non-essential amino acids and 10 mM HEPES. Cells were grown at 37° C. in a humidified 5% CO2 atmosphere. Exponentially growing P388 cells were plated at 5,000 cells/well in a 96-well flat-bottomed microtiter plate (Corning, Costar #3595). […] Cellular viability was determined 72 hours later by measuring intracellular ATP with ATP-Lite assay system. The effect of compounds on cell viability was calculated by comparing the ATP levels of cells exposed to test compound with those of cells exposed to DMSO. A semi-log plot of relative ATP levels versus compound concentration was used to calculate the compound concentration required to inhibit growth by 50% (IC50). Data was analyzed by Prism software (GraphPad; San Diego, Calif.) by fitting it to a sigmoidal dose response curve.

[3] = Mus musculus, 72 h, multidrug resistant cells overexpressing MDR-1
[4] = multidrug resistant cells overexpressing MDR-1, 72 hours

SMILES | IC50 [1, 3] [nM] | IC50 ([2]; Mus musculus, P388, 72 h) [nM] | IC50 ([2]; 72 hours) [nM] | IC50 [1, 4] [nM]
COc1ccc(N(C)c2nc(NCCOP(=O)(OC(C)(C)C)OC(C)(C)C)nc3ccccc23)cc1 [Example 10, Phosphoric acid di-tent-butyl ester 2-{4-[(4-methoxy-phenyl)-methyl-amino]-quinazolin-2-ylamino}-ethyl ester] | 380 | – | – | –
COc1ccc(N(C)c2nc(NCCNC(C)=O)nc3ccccc23)cc1OC [Example 20, N-(2-{4-[(3,4-Dimethoxy-phenyl)-methyl-amino]-quinazolin-2-ylamino}-ethyl)-acetamide] | 9400 | 1700 | 1100 | –
COC(=O)NCCNc1nc(N(C)c2ccc(OC)c(OC)c2)c2ccccc2n1 [Example 21, (2-{4-[(3,4-Dimethoxy-phenyl)-methyl-amino]-quinazolin-2-ylamino}-ethyl)-carbamic acid methyl ester] | 190 | 120 | 64 | 150
CCOCCOCCOCCOc1nc(N(C)c2ccc(OC)cc2)c2ccccc2n1 [Example 7, (2-{2-[2-(2-Ethoxy-ethoxy)-ethoxy]-ethoxy}-quinazolin-4-yl)-(4-methoxy-phenyl)-methyl-amine] | 520 | 1400 | – | –
COc1ccc(N(C)c2nc(NCCNC(=O)CNC(=O)OC(C)(C)C)nc3ccccc23)cc1 [Example 31, [(2-{4-[(4-Methoxy-phenyl)-methyl-amino]-quinazolin-2-ylamino}-ethylcarbamoyl)-methyl]-carbamic acid tert-butyl ester] | 1100 | 1300 | – | –
COc1ccc(N(C)c2nc(N[C@@H](C)[C@H](O)c3ccccc3)nc3ccccc23)cc1 [Example 24, (1R,2S)-2-{4-[(4-Methoxy-phenyl)-methyl-amino]-quinazolin-2-ylamino}-1-phenyl-propan-1-ol] | 1700 | 1600 | – | –
COc1ccc(N(C)c2nc(CN(CCCO)Cc3nc(N(C)c4ccc(OC)cc4)c4ccccc4n3)nc3ccccc23)cc1 [Example 54, 3-(Bis-{4-[(4-methoxy-phenyl)-methyl-amino]-quinazolin-2-ylmethyl}-amino)-propan-1-ol] | 76 | 64 | – | –
COc1ccc(N(C)c2nc(CNC(=O)Oc3ccccc3)nc3ccc(F)cc23)cc1 [Example 43, {6-Fluoro-4-[(4-methoxy-phenyl)-methyl-amino]-quinazolin-2-ylmethyl}-carbamic acid phenyl ester] | 5.7 | 7.2 | – | –
COc1ccc(N(C)c2nc(N[C@@H](CO)c3ccccc3)nc3ccccc23)cc1 [Example 23, (R)-2-{4-[(4-Methoxy-phenyl)-methyl-amino]-quinazolin-2-ylamino}-2-phenyl-ethanol] | 3300 | 4600 | – | –
COC(=O)NCCNc1nc(N(C)c2ccc(OC)cc2)c2cc(OC)ccc2n1 [Example 26, (2-{6-Methoxy-4-[(4-methoxy-phenyl)-methyl-amino]-quinazolin-2-ylamino}-ethyl)-carbamic acid methyl ester] | 7400 | 7200 | – | –
COC(=O)NCCNc1nc(N(C)c2ccc(OC)cc2)c2cc(C)ccc2n1 [Example 30, (2-{4-[(4-Methoxy-phenyl)-methyl-amino]-6-methyl-quinazolin-2-ylamino}-ethyl)-carbamic acid methyl ester] | 160 | 85 | – | –
COc1ccc(N(C)c2nc(CNC(=O)OC(C)OC(=O)C(C)C)nc3ccccc23)cc1 (stereo not shown) [Example 49, Isobutyric acid 1-{4-[(4-methoxy-phenyl)-methyl-amino]-quinazolin-2-ylmethylcarbamoyloxy}-ethyl ester] | 13 | 5.5 | – | –
COc1ccc(N(C)c2nc(N3CCNCC3)nc3ccccc23)cc1 [Example 9, (4-Methoxy-phenyl)-methyl-(2-piperazin-1-yl-quinazolin-4-yl)-amine] | 3200 | 2600 | – | –
COc1ccc(N(C)c2nc(N[C@@H](C)C(=O)OC(C)(C)C)nc3ccccc23)cc1 [Example 28, (S)-2-{4-[(4-Methoxy-phenyl)-methyl-amino]-quinazolin-2-ylamino}-propionic acid tert-butyl ester] | 170 | 150 | – | –
COc1ccc(N(C)c2nc(NCCNC(=O)OC(C)(C)C)nc3ccc(OC)cc23)cc1 [Example 16, (2-{6-Methoxy-4-[(4-methoxy-phenyl)-methyl-amino]-quinazolin-2-ylamino}-ethyl)-carbamic acid tent-butyl ester] | 3400 | 4000 | 2400 | 2000
COCCOCCOc1nc(N(C)c2ccc(OC)cc2)c2ccccc2n1 [Example 1, {2-[2-(2-Methoxy-ethoxy)-ethoxy]-quinazolin-4-yl}-(4-methoxy-phenyl)-methyl-amine] | 580 | 490 | – | –
COc1ccc(N(C)c2nc(NCC(O)CNc3nc(N(C)c4ccc(OC)cc4)c4ccccc4n3)nc3ccccc23)cc1 [Example 42, 1,3-Bis-{4-[(4-methoxy-phenyl)-methyl-amino]-quinazolin-2-ylamino}-propan-2-ol] | 880 | 680 | – | –
COc1ccc(N(C)c2nc(N(CCNC(C)=O)C(C)=O)nc3ccccc23)cc1 [Example 39, N-[2-(Acetyl-{4-[(4-methoxy-phenyl)-methyl-amino]-quinazolin-2-yl}-amino)-ethyl]-acetamide] | – | 3800 | – | –
COc1ccc(N(C)c2nc(N[C@@H](C)C(=O)O)nc3ccccc23)cc1 [Example 36, (S)-2-{4-[(4-Methoxy-phenyl)-methyl-amino]-quinazolin-2-ylamino}-propionic acid] | 700 | 780 | – | –
COc1ccc(N(C)c2nc(NCCNC(=O)OC(C)(C)C)nc3ccccc23)cc1OC [Example 14, (2-{4-[(3,4-Dimethoxy-phenyl)-methyl-amino]-quinazolin-2-ylamino}-ethyl)-carbamic acid tert-butyl ester] | 340 | 300 | 340 | 350
COc1ccc(N(C)c2nc(NCCOC(=O)[C@@H](N)CC(N)=O)nc3ccccc23)cc1 [Example 33, (S)-2-Amino-succinamic acid 2-{4-[(4-methoxy-phenyl)-methyl-amino]-quinazolin-2-ylamino}-ethyl ester] | 18 | 17 | – | –
COc1ccc(N(C)c2nc(NCCOC(=O)[C@H](N)CCCCN)nc3ccccc23)cc1 [Example 15, (R)-2,6-Diamino-hexanoic acid 2-{4-[(4-methoxy-phenyl)-methyl-amino]-quinazolin-2-ylamino}-ethyl ester] | 33 | 11 | 15 | 22
COc1ccc(N(C)c2nc(NCCOC(=O)[C@H](N)Cc3c[nH]c4ccccc34)nc3ccccc23)cc1 [Example 35, (R)-2-Amino-3-(1H-indol-3-yl)-propionic acid 2-{4-[(4-methoxy-phenyl)-methyl-amino]-quinazolin-2-ylamino}-ethyl ester] | 240 | 220 | – | –
COc1ccc(N(C)c2nc(CNC(=O)[C@H](C)NC(=O)OC(C)(C)C)nc3ccccc23)cc1 [Example 50, [(S)-1-({4-[(4-Methoxy-phenyl)-methyl-amino]-quinazolin-2-ylmethyl}-carbamoyl)-ethyl]-carbamic acid tent-butyl ester] | 190 | 180 | – | –
COc1ccc(N(C)c2nc(N[C@@H](CO)Cc3ccccc3)nc3ccccc23)cc1 [Example 25, (R)-2-{4-[(4-Methoxy-phenyl)-methyl-amino]-quinazolin-2-ylamino}-3-phenyl-propan-1-ol] | 1800 | 1800 | – | –
COc1ccc(N(C)c2nc(NCCNC(N)=O)nc3ccc(OC)cc23)cc1 [Example 22, (2-{6-Methoxy-4-[(4-methoxy-phenyl)-methyl-amino]-quinazolin-2-ylamino}-ethyl)-urea] | – | 9300 | – | –
COc1ccc(N(C)c2nc(NCCNC(C)=O)nc3ccc(C)cc23)cc1 [Example 18, N-(2-{4-[(4-Methoxy-phenyl)-methyl-amino]-6-methyl-quinazolin-2-ylamino}-ethyl)-acetamide] | 2500 | – | – | 1400
COc1ccc(N(C)c2nc(OCCN3CCN(CCO)CC3)nc3ccccc23)cc1 [Example 5, 2-[4-(2-{4-[(4-Methoxy-phenyl)-methyl-amino]-quinazolin-2-yloxy}-ethyl)-piperazin-1-yl]-ethanol] | – | 3600 | – | –
